{
  "source": "patent US12397037B2",
  "about": "“Methods and compositions for immunomodulation” (CHILDREN'S MEDICAL CENTER CORPORATION, priority 2014, dated 2025)",
  "key": {"VEGF": {"test_system": "VEGF", "assay": "VEGF protein in conditioned media by ELISA, U87MG cells", "assay_type": "cell-based, human", "source_text": "The VEGF-A (DVE00) ELISA kit was obtained from R&D Systems (Minneapolis, MN). […] Desferrioxamine (DFO) was purchased from Sigma-Aldrich, and the MEK inhibitor (U0126) was purchased from EMD-Millipore (Billerica, MA). pGL4.74 [hRluc/TK] vector (Promega Madison, WI) was used as an internal control in luciferase assay."}, "VEGF promoter": {"test_system": "VEGF promoter", "assay": "VEGF promoter luciferase assay in U87MG cells", "assay_type": "cell-based, human", "conditions": "DFO 250 μM, 18 hours", "experimental": "FIGS. 31A-31B depict U87MG cells transiently co-transfected with a full-length human VEGF promoter luciferase plasmid and a pGL4.74 [hRluc/TK] plasmid as an internal control. Cells were treated with SEMA3F (640 ng/ml for 30 minutes) prior to the addition of DFO (250 μM) or the culture of cells in a hypoxia chamber (1% 02). After 18 hours, VEGF promoter luciferase activity was analyzed. FIG. 31C depicts a graph of U87MG cells transiently cotransfected with our VEGF promoter luciferase and pGL4.74 [hRluc/TK] plasmids and with either a pcDNA3.1 empty vector or our constitutively active Akt (2DAkt). The cells were treated with SEMA3F for 30 minutes prior to the addition of DFO. After 18 hours, VEGF promoter luciferase activity was analyzed. FIG. 31D depicts a graph of parental U87MG cells treated with SEMA3F, rapamycin (10 nM), Torin 1 (10 nM) alone or in combination as indicated for 30 minutes prior to the addition of DFO, and culture supernatants were collected after 18 hours; VEGF protein levels were analyzed by ELISA. In each panel data are representative of 3 independent experiments. Bar graphs represent the mean±SD of n=3 experiments performed in triplicate, *, p<0.01 vs. control.\nSEMA3F inhibits hypoxia-induced production of VEGF via the mTOR pathway. The local expression and regulation of VEGF is key to many physiological and pathological processes (40, 41). These findings indicate that SEMA3F can target the transcriptional activation of VEGF via its ability to target mTOR kinase activity (36, 42). To test the effect of SEMA3F on the regulation of VEGF expression, U87MG cells were transfected with a full-length 2.6 kb VEGF promoter-luciferase construct and exposed to the hypoxia mimetic agent desferrioxamine (DFO) or hypoxia (1% 02). […] To test the relative effect of SEMA3F on mTORC1/C2, U87MG cells transiently co-transfected with the 2DAkt construct and the full length VEGF promoter reporter construct, and the cells cultured in the absence or presence of SEMA3F. […] Finally, the effect of SEMA3F on the secretion of VEGF into conditioned media (by ELISA) was determined in the absence or presence of DFO.\nTransfection and Luciferase assay: U87MG cells were transiently transfected with plasmid constructs (pcDNA3.1, WT mTOR, 2DAkt, VEGF luciferase reporter plasmid or pGL4.74 [hRluc/TK]) as indicated using Lipofectamine 2000 reagent (Life Technologies) according to the manufacturer's instructions. After 18 hours, cells were treated as outlined in each experimental design. VEGF promoter activity was analyzed using a Dual-Luciferase Reporter Assay System (Promega), and luciferase activity was normalized by Renilla luciferase as an internal control."}, "[1]": {"test_system": "glioblastoma cells and EC", "conditions": "reference 12; cited from earlier work"}, "U87MG cells": {"test_system": "U87MG cells", "assay": "Western blot of PI-3K/Akt-mTOR and MAPK signaling in U87MG cells", "assay_type": "cell-based, human", "conditions": "U87MG cells", "experimental": "U87MG which express NRP-2 were used for this assay.\nTo determine the effect of SEMA3F on intracellular signaling responses, levels of phosphokinases in the NRP2-expressing human glioblastoma cell line U87MG were profiled.\nWestern blotting: Proteins within each sample were separated by SDS-PAGE and transferred to nitrocellulose membranes. The membranes were blocked with 4% skimmed milk in TBS-T (0.1% Tween 20 in tris-buffered saline [TBS]) for 30 minutes, followed by incubation with the primary antibody. After washing with TBS-T, membranes were incubated with the appropriate horseradish peroxidase-conjugated secondary antibody, and immunoreactivity was detected by using ECL detection reagents."}, "[2]": {"conditions": "rapamycin alone 10 nM for 90 minutes, vs untreated"}},
  "data": [
    {"smiles": "CC(=O)N(O)CCCCCNC(=O)CCC(=O)N(O)CCCCCNC(=O)CCC(=O)N(O)CCCCCN", "note": "[DFO, desferrioxamine, reference compound]", "values": [
      {"measurement": "increase of VEGF production", "setting": "VEGF; DFO, compared to untreated cells", "value": 160, "unit": "%"},
      {"measurement": "induction of VEGF promoter activity", "setting": "VEGF promoter", "value": 16, "unit": "fold"}
    ]},
    {"smiles": "Cc1ccc(NC(=O)c2ccc(CN3CCN(C)CC3)cc2)cc1Nc1nccc(-c2cccnc2)n1", "note": "[Gleevec, imatinib]", "values": [
      {"measurement": "SEMA3-mediated loss of stress fiber formation and motility", "setting": "[1]", "value": "abrogates SEMA3-mediated loss of stress fiber formation and motility"}
    ]},
    {"smiles": "CCC(=O)N1CCN(c2ccc(-n3c(=O)ccc4cnc5ccc(-c6cnc7ccccc7c6)cc5c43)cc2C(F)(F)F)CC1", "note": "[Torin 1]", "values": [
      {"measurement": "VEGF levels, combination of SEMA3F and Torin 1", "setting": "VEGF; DFO, compared to SEMA3F or Torin 1 alone", "value": "slightly (but significantly p<0.05) inhibited VEGF levels"},
      {"measurement": "DFO-induced VEGF protein secretion", "setting": "VEGF; SEMA3F, rapamycin 10 nM or Torin 1 10 nM, 30 minutes prior to DFO, supernatants after 18 hours", "value": "significantly reduced"}
    ]},
    {"smiles": "N#CC(=C(/N)Sc1ccccc1N)/C(C#N)=C(\\N)Sc1ccccc1N", "note": "[U0126, reference compound]", "values": [
      {"measurement": "effect of MEK inhibitor on SEMA3F regulation of pAkt", "setting": "U87MG cells; U0126 10 μM 30 minutes prior to SEMA3F 640 ng/ml", "value": "did not modulate"}
    ]},
    {"smiles": "CO[C@H]1C[C@@H]2CC[C@@H](C)[C@@](O)(O2)C(=O)C(=O)N2CCCC[C@H]2C(=O)O[C@H]([C@H](C)C[C@@H]2CC[C@@H](O)[C@H](OC)C2)CC(=O)[C@H](C)/C=C(\\C)[C@@H](O)[C@@H](OC)C(=O)[C@H](C)C[C@H](C)/C=C/C=C/C=C/1C", "note": "[rapamycin, reference compound]", "values": [
      {"measurement": "induction in the level of pAkt (S473)", "setting": "U87MG cells; [2]", "value": 2.0, "unit": "fold"},
      {"measurement": "induction in the level of pAkt (T308)", "setting": "U87MG cells; [2]", "value": 1.9, "unit": "fold"}
    ]}
  ]
}
